Data taken from patent US20260078120A1, “SUBSTITUTED PYRIDOPYRIMIDINONES” (MIRATI THERAPEUTICS, INC., priority 2022, published 2026).

What was measured:
[1] = tested on: SKBR3 (PI3Kα wild type) cells; experiment: CellTiter-Glo 2.0 luminescent cell viability assay, 72 hours, SKBR3 cells; format: cell-based; settings: Homo sapiens, SK-BR-3, 72 h, SKBR3 (PI3Kα wild type) cells, CellTiter-Glo, approximately 72 hours; read-out: SKBR3 (WT) Viability IC50
Outline: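 Viability measured via CTG luminescence following roughly 72 hours of compound exposure at 37° C. Dosing used a 10 um starting concentration diluted 1:4 over 10 points; percent-of-vehicle data fitted with a variable-slope four-parameter model for IC50.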

[2] = tested on: T47D (PI3Kα H1047R mutant) cells; experiment: CellTiter-Glo 2.0 luminescent cell viability assay, 72 hours, T47D cells; format: cell-based; settings: Homo sapiens, T47D, 72 h, T47D (PI3Kα H1047R mutant) cells, CellTiter-Glo, approximately 72 hours; read-out: T47D (H1047R mutant) Viability IC50
Outline: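 Viability was measured by CellTiter-Glo 2.0 luminescence after approximately 72 h of compound exposure at 37° C. Plating was 1000 cells per well the day before dosing, with ten 1:4 dilutions from a 10 µM top concentration. Values as percent of vehicle were fitted by variable-slope log(inhibitor) regression to give IC50.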

SMILES	IC50 [1] [nM]	IC50 [2] [nM]
Cc1cc([C@@H](C)Nc2ccccc2C(=O)O)c2nc(N3C4CCC3c3ccccc34)c(C#N)c(=O)n2c1 [Example 11-214, 2-(((1R)-1-(3-cyano-7-methyl-4-oxo-2-(1,2,3,4-tetrahydro-1,4-epiminonaphthalen-9-yl)-4H-pyrido[1,2-a]pyrimidin-9-yl)ethyl)amino)benzoic acid]	> 10000	262
Cc1cc([C@@H](C)Nc2ccccc2C(=O)O)c2nc(N3CCN(C4CCOCC4)CC3)c(C)c(=O)n2c1 [Example 11-187, (R)-2-((1-(3,7-dimethyl-4-oxo-2-(4-(tetrahydro-2H-pyran-4-yl)piperazin-1-yl)-4H-pyrido[1,2-a]pyrimidin-9-yl)ethyl)amino)benzoic acid]	> 10000	406
Cc1cc([C@@H](C)Nc2ccccc2C(=O)O)c2nc(C3=CCN(C)CC3)c(C)c(=O)n2c1 [Example 11-148, (R)-2-((1-(3,7-dimethyl-2-(1-methyl-1,2,3,6-tetrahydropyridin-4-yl)-4-oxo-4H-pyrido[1,2-a]pyrimidin-9-yl)ethyl)amino)benzoic acid]	> 10000	1190
Cc1cc([C@@H](C)Nc2ccccc2C(=O)O)c2nc(N3CCC(N4CCCCC4=O)CC3)c(C)c(=O)n2c1 [Example 10-3, (R)-2-((1-(3,7-dimethyl-4-oxo-2-(2-oxo-[1,4′-bipiperidin]-1′-yl)-4H-pyrido[1,2-a]pyrimidin-9-yl)ethyl)amino)benzoic acid]	> 10000	8.12
Cc1cc([C@@H](C)Nc2ccc(Cl)nc2C(=O)O)c2nc(N3CCC(F)(F)CC3)c(C)c(=O)n2c1 [Example 11-298, (R)-6-chloro-3-((1-(2-(4,4-difluoropiperidin-1-yl)-3,7-dimethyl-4-oxo-4H-pyrido[1,2-a]pyrimidin-9-yl)ethyl)amino)picolinic acid]	> 10000	139
Cc1cc([C@@H](C)Nc2ccccc2C(=O)O)c2nc(N3CC4CCC(C3)C4O)c(C)c(=O)n2c1 (stereo partly drawn) [Example 10-146, 2-(((1R)-1-(2-(8-hydroxy-3-azabicyclo[3.2.1]octan-3-yl)-3,7-dimethyl-4-oxo-4H-pyrido[1,2-a]pyrimidin-9-yl)ethyl)amino)benzoic acid]	> 10000	100
Cc1cc([C@@H](C)Nc2ccccc2C(=O)O)c2nc(N3CCC(F)(F)C[C@H]3C)c(C)c(=O)n2c1 [Example 11-93, 2-(((R)-1-(2-((R)-4,4-difluoro-2-methylpiperidin-1-yl)-3,7-dimethyl-4-oxo-4H-pyrido[1,2-a]pyrimidin-9-yl)ethyl)amino)benzoic acid]	> 10000	268
Cc1cnn(C2CCN(c3nc4c([C@@H](C)Nc5ccccc5C(=O)O)cc(C)cn4c(=O)c3C)CC2)c1 [Example 10-16, (R)-2-((1-(3,7-dimethyl-2-(4-(4-methyl-1H-pyrazol-1-yl)piperidin-1-yl)-4-oxo-4H-pyrido[1,2-a]pyrimidin-9-yl)ethyl)amino)benzoic acid]	> 10000	37.3
Cc1cc([C@@H](C)Nc2ccccc2C(=O)O)c2nc(N[C@H](C3CC3)C(F)(F)F)c(C#N)c(=O)n2c1 [Example 11-160, 2-(((R)-1-(3-cyano-2-(((R)-1-cyclopropyl-2,2,2-trifluoroethyl)amino)-7-methyl-4-oxo-4H-pyrido[1,2-a]pyrimidin-9-yl)ethyl)amino)benzoic acid]	> 10000	657
Cc1cc([C@@H](C)Nc2ccccc2C(=O)O)c2nc(NCC3CC3(F)F)c(C#N)c(=O)n2c1 (stereo partly drawn) [Example 11-158, 2-(((1R)-1-(3-cyano-2-(((2,2-difluorocyclopropyl)methyl)amino)-7-methyl-4-oxo-4H-pyrido[1,2-a]pyrimidin-9-yl)ethyl)amino)benzoic acid]	> 10000	167
Cc1cc(C(C)Nc2ccc(Cl)nc2C(=O)O)c2nc(N3CCCCC3)c(C)c(=O)n2c1 (stereo not shown) [Example 11-359, 6-chloro-3-((1-(3,7-dimethyl-4-oxo-2-(piperidin-1-yl)-4H-pyrido[1,2-a]pyrimidin-9-yl)ethyl)amino)picolinic acid]	8110	362
Cc1cc([C@@H](C)Nc2ccccc2C(=O)O)c2nc(N3C[C@H]4C[C@@H]3CN4CC(F)F)c(C)c(=O)n2c1 [Example 11-443, 2-(((R)-1-(2-((1R,4R)-5-(2,2-difluoroethyl)-2,5-diazabicyclo[2.2.1]heptan-2-yl)-3,7-dimethyl-4-oxo-4H-pyrido[1,2-a]pyrimidin-9-yl)ethyl)amino)benzoic acid]	> 10000	130
Cc1cc(C(C)Nc2ccccc2C(=O)O)c2nc(N3C4CCC3CC4)cc(=O)n2c1 (stereo not shown) [Example 11-344, 2-((1-(2-(7-azabicyclo[2.2.1]heptan-7-yl)-7-methyl-4-oxo-4H-pyrido[1,2-a]pyrimidin-9-yl)ethyl)amino)benzoic acid]	> 10000	2150
Cc1cc([C@@H](C)Nc2ccccc2C(=O)O)c2nc(N3CCCC4(CCC4O)C3)c(C)c(=O)n2c1 (stereo partly drawn) [Example 10-8, 2-(((1R)-1-(2-(1-hydroxy-6-azaspiro[3.5]nonan-6-yl)-3,7-dimethyl-4-oxo-4H-pyrido[1,2-a]pyrimidin-9-yl)ethyl)amino)benzoic acid]	> 10000	24.2
Cc1cc(C(C)Nc2ccc(Cl)nc2C(=O)O)c2nc(N3CCCCC3)c(C#N)c(=O)n2c1 (stereo not shown) [Example 11-332, 6-chloro-3-((1-(3-cyano-7-methyl-4-oxo-2-(piperidin-1-yl)-4H-pyrido[1,2-a]pyrimidin-9-yl)ethyl)amino)picolinic acid]	9810	481
Cc1cc([C@@H](C)Nc2ccnnc2)c2nc(N3CCC(F)(F)CC3)c(C#N)c(=O)n2c1 [Example 11-145, (R)-2-(4,4-difluoropiperidin-1-yl)-7-methyl-4-oxo-9-(1-(pyridazin-4-ylamino)ethyl)-4H-pyrido[1,2-a]pyrimidine-3-carbonitrile]	> 10000	> 10000

Second part, the compound after the results:

IC50 [1] [nM]	IC50 [2] [nM]	SMILES
> 10000	> 10000	Cc1cc(C(C)Nc2ccccc2C(=O)O)c2nc(Oc3ccccc3)cc(=O)n2c1 (stereo not shown) [Example 11-341, 2-((1-(7-methyl-4-oxo-2-phenoxy-4H-pyrido[1,2-a]pyrimidin-9-yl)ethyl)amino)benzoic acid]
> 10000	9520	Cc1cc(C(C)Nc2ccccc2C(=O)O)c2nc(N3CCN(c4ccc(CN)cc4)CC3)cc(=O)n2c1 (stereo not shown) [Example 11-257, 2-((1-(2-(4-(4-(aminomethyl)phenyl)piperazin-1-yl)-7-methyl-4-oxo-4H-pyrido[1,2-a]pyrimidin-9-yl)ethyl)amino)benzoic acid]
3230	573	Cc1cc([C@@H](C)Nc2ccccc2C(=O)O)c2nc(-c3cnn(-c4ccc(C#N)cc4)c3)cc(=O)n2c1 [Example 11-240, (R)-2-((1-(2-(1-(4-cyanophenyl)-1H-pyrazol-4-yl)-7-methyl-4-oxo-4H-pyrido[1,2-a]pyrimidin-9-yl)ethyl)amino)benzoic acid]
> 10000	> 10000	Cc1cc(C(C)Nc2ccccc2C(=O)O)c2nc(-c3cccc(C#N)c3)cc(=O)n2c1 (stereo not shown) [Example 11-398, 2-((1-(2-(3-cyanophenyl)-7-methyl-4-oxo-4H-pyrido[1,2-a]pyrimidin-9-yl)ethyl)amino)benzoic acid]
> 10000	196	Cc1cc([C@@H](C)Nc2ccccc2C(=O)O)c2nc(O[C@H]3CCOC3)c(C)c(=O)n2c1 [Example 11-246, 2-(((R)-1-(3,7-dimethyl-4-oxo-2-(((S)-tetrahydrofuran-3-yl)oxy)-4H-pyrido[1,2-a]pyrimidin-9-yl)ethyl)amino)benzoic acid]
> 10000	165	Cc1cc([C@@H](C)Nc2ccccc2C(=O)O)c2nc(NCC3(F)CC3)c(C#N)c(=O)n2c1 [Example 11-155, (R)-2-((1-(3-cyano-2-(((1-fluorocyclopropyl)methyl)amino)-7-methyl-4-oxo-4H-pyrido[1,2-a]pyrimidin-9-yl)ethyl)amino)benzoic acid]
> 10000	159	Cc1cc([C@@H](C)Nc2ccccc2C(=O)O)c2nc(N3CC(F)(F)[C@H]3C)c(C)c(=O)n2c1 [Example 11-96, 2-(((R)-1-(2-((R)-3,3-difluoro-2-methylazetidin-1-yl)-3,7-dimethyl-4-oxo-4H-pyrido[1,2-a]pyrimidin-9-yl)ethyl)amino)benzoic acid]
> 10000	117	Cc1cc([C@@H](C)Nc2ccccc2C(=O)O)c2nc(N3CC(C(F)(F)F)C3)c(C#N)c(=O)n2c1 [Example 11-106, (R)-2-((1-(3-cyano-7-methyl-4-oxo-2-(3-(trifluoromethyl)azetidin-1-yl)-4H-pyrido[1,2-a]pyrimidin-9-yl)ethyl)amino)benzoic acid]
> 10000	303	Cc1cc([C@@H](C)Nc2ccccc2C(=O)O)c2nc(N3CCN(c4ccccc4C#N)C[C@@H]3C)c(C)c(=O)n2c1 [Example 11-82, 2-(((R)-1-(2-((S)-4-(2-cyanophenyl)-2-methylpiperazin-1-yl)-3,7-dimethyl-4-oxo-4H-pyrido[1,2-a]pyrimidin-9-yl)ethyl)amino)benzoic acid]
> 10000	51	Cc1cc([C@@H](C)Nc2ccccc2C(=O)O)c2nc(N3CCN(Cc4cccnc4)CC3C)c(C)c(=O)n2c1 (stereo partly drawn) [Example 10-132, 2-(((1R)-1-(3,7-dimethyl-2-(2-methyl-4-(pyridin-3-ylmethyl)piperazin-1-yl)-4-oxo-4H-pyrido[1,2-a]pyrimidin-9-yl)ethyl)amino)benzoic acid]
